# From patent publication US8962630B2, “Pyrrolopyrimidine compounds and their uses” (Novartis AG, priority 2008, dated 2015)
# Key:
# Type in all cases: biochemical
# CDK1/cyclin B = CDK1/cyclin B (Homo sapiens (Human), UniProt P06493); assay: CDK1/Cyclin B enzymatic activity assay (IMAP-FP); details: Table 2; 20 μM ATP; read-out: CDK1
# Description: A 384-well microtiter IMAP-FPT™ (Molecular Devices Trade Mark Technology) endpoint assay was used for CDK1/cyclin B kinase activity measurements. The same assay was used for IC50 determination of small molecule inhibitors.
# CDK4/cyclin D1 = CDK4/cyclin D1 (Homo sapiens (Human), UniProt P11802); assay: CDK4/Cyclin D1 enzymatic activity assay (Lance TR-FRET); details: Table 2; 3 μM ATP; read-out: CDK4
# Chain of CDK4/cyclin D1 (P11802 whole entry): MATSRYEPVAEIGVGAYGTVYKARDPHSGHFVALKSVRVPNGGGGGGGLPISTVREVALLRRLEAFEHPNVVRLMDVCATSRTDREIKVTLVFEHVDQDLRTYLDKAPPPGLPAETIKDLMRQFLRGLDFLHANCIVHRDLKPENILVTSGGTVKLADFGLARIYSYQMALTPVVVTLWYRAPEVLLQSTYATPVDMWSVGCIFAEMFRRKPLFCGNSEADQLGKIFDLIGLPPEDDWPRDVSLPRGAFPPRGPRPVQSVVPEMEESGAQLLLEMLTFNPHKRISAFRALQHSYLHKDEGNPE
# Chain of CDK4/cyclin D1 (P24385 whole entry partner): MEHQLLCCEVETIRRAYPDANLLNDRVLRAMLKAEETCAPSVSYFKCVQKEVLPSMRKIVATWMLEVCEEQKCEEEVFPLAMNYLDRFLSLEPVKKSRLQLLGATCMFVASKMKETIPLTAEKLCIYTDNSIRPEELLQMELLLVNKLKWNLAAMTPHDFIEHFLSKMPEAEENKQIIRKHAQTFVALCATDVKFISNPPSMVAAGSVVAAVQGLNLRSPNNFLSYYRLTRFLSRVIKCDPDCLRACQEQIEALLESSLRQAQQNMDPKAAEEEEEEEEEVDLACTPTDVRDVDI
# Procedure: A 384-well microtiter Lance TR-FRET (time-resolved-fluorescence energy transfer) endpoint assay was used for CDK4/cyclin D1 kinase activity measurements. The same assay was used for IC50 determination of small molecule inhibitors. In general, the kinase reactions were carried out in 30 μL volumes in the reaction solution containing the following: 2 uL compound (in […]), 18 uL CDK4/cyclin D1 in Assay Buffer (50 mM HEPES, pH 7.5, 5 mM MgCl2, 2 mM MnCl2, 1 mM DTT, 0.05% BSA, 0.02% Tween-20), 10 uL of the mixture of pRb152 and ATP. The final reaction mixture contains compound (inhibitor) with the concentration varying from 0.005-10 μM, 2% DMSO, 0.3 nM CDK4/cyclin D1, 175 nM pRb152, and 3 μM ATP (Amersham Pharmacia, Cat. No. 27-2056-01). All reactions were run at room temperature in 384-well white flat-bottom OptiPlates (Perkin Elmer, Cat. No. 6007290) for 60 min then were quenched by the addition of 10 μL of 120 mM EDTA. The signals were captured by the addition of 40 μL of the Detection Solution containing the following: Detection Buffer (50 mM HEPES, pH 7.5, 30 mM EDTA, 0.1% Triton x-100, 0.05% BSA), 70 ng/mL anti-phospho-pRb(S780) (Cell Signaling Technology, Cat. No. 9307S), 1 nM Lance Eu-W1024-Rabbit anti-IgG (Perkin Elmer, Cat. No. AD0082), and 20 nM SureLight™ Allophycocyanin-Streptavidin (Perkin Elmer, Cat. No. CR130-100). The resulted solutions were incubated at room temperature for 2 hours before read on the Evision Multilabel Reader (Perkin Elmer, Envision 2102-0010).
# CDk4/cyclin D1 recombinant protein used in the enzymatic activity assay was prepared by coexpressing pDEST10-CDK4 (N-terminal His6) and pFastBacDual-GST-hCyclinDl viruses in Sf21 cells.
# CDK2/cyclin A = CDK2/cyclin A (Homo sapiens (Human), UniProt P24941); assay: CDK2/Cyclin A enzymatic activity assay (IMAP-FP); details: Table 2; read-out: CDK2
# Chain of CDK1/cyclin B (P06493 whole entry, species assumed): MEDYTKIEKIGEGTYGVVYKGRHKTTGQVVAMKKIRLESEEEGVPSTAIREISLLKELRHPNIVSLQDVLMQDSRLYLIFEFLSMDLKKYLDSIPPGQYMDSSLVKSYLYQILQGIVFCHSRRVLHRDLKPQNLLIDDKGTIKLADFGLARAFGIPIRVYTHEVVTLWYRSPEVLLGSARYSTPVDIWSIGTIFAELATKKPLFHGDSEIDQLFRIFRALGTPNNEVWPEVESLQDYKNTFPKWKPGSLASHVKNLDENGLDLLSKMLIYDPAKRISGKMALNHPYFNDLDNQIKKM
# Chain of CDK1/cyclin B (P14635 whole entry partner, species assumed): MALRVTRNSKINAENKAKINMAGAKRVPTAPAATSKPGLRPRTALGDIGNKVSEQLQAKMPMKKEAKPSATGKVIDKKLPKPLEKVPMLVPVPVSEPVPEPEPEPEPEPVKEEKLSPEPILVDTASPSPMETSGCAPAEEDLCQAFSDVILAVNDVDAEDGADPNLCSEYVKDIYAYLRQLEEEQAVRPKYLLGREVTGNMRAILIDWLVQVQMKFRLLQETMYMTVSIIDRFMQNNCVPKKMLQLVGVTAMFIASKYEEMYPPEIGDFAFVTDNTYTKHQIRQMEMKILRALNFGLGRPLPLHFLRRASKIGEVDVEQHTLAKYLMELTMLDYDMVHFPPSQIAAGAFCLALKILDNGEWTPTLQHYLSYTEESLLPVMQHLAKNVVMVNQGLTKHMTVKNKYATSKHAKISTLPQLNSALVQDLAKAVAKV
SMILES,IC50 (CDK1/cyclin B),IC50 (CDK4/cyclin D1),IC50 (CDK2/cyclin A)
"CN(C)C(=O)c1cc2cnc(Nc3ccc(CN4CCN(S(C)(=O)=O)CC4)cn3)nc2n1C1CCCC1 [Example 34, 7-Cyclopentyl-2-[5-(4-methanesulfonyl-piperazin-1-ylmethyl)-pyridin-2-ylamino]-7H-pyrrolo[2,3-d]pyrimidine-6-carboxylic acid dimethylamide]",> 15000 nM,100 to 1000 nM,> 15000 nM
"CN(C)C(=O)c1cc2cnc(Nc3ccc(N4CCC(CCO)CC4)cn3)nc2n1C1CCCC1 [Example 35, 7-Cyclopentyl-2-[4-(2-hydroxy-ethyl)-3,4,5,6-tetrahydro-2H-[1,3′]bipyridinyl-6′-ylamino]-7H-pyrrolo[2,3-d]pyrimidine-6-carboxylic acid dimethylamide]",4700 nM,10 to 100 nM,2900 nM
"CC(CO)N1CCN(c2ccc(Nc3ncc4cc(C(=O)N(C)C)n(C5CCCC5)c4n3)nc2)CC1 (stereo not drawn) [Example 36, 7-Cyclopentyl-2-{5-[4-(2-hydroxy-1-methyl-ethyl)-piperazin-1-yl]-pyridin-2-ylamino}-7H-pyrrolo[2,3-d]pyrimidine-6-carboxylic acid dimethylamide]",> 15000 nM,10 to 100 nM,> 15000 nM
"CN(C)C(=O)c1cc2cnc(Nc3ccc(N4CCN(CCO)CC4)nn3)nc2n1C1CCCC1 [Example 37, 7-Cyclopentyl-2-{6-[4-(2-hydroxy-ethyl)-piperazin-1-yl]-pyridazin-3-ylamino}-7H-pyrrolo[2,3-d]pyrimidine-6-carboxylic acid dimethylamide]",> 15000 nM,10 to 100 nM,> 15000 nM
"CN(C)C(=O)c1cc2cnc(Nc3ccc(N4CCN(C(=O)N5CCOCC5)CC4)cn3)nc2n1C1CCCC1 [Example 38, 7-Cyclopentyl-2-{5-[4-(morpholine-4-carbonyl)-piperazin-1-yl]-pyridin-2-ylamino}-7H-pyrrolo[2,3-d]pyrimidine-6-carboxylic acid dimethylamide]",> 15000 nM,10 to 100 nM,> 15000 nM
"CN(C)C(=O)c1cc2cnc(Nc3ccc(N4CC[C@H](O)C4)cn3)nc2n1C1CCCC1 [Example 39, 7-Cyclopentyl-2-[5-((S)-3-hydroxy-pyrrolidin-1-yl)-pyridin-2-ylamino]-7H-pyrrolo[2,3-d]pyrimidine-6-carboxylic acid dimethylamide]",> 15000 nM,10 to 100 nM,> 15000 nM
"CN(C)C(=O)c1cc2cnc(Nc3ccccn3)nc2n1C1CCC(C)(O)CC1 (stereo not drawn) [Example 40, 7-(4-Hydroxy-4-methyl-cyclohexyl)-2-(pyridin-2-ylamino)-7H-pyrrolo[2,3-d]pyrimidine-6-carboxylic acid dimethylamide]",> 15000 nM,100 to 1000 nM,> 15000 nM
"CN(C)C(=O)c1cc2cnc(Nc3ccc(C(=O)N(C)CCN)cn3)nc2n1C1CCCC1 [Example 41, 2-{5-[(2-Amino-ethyl)-methyl-carbamoyl]-pyridin-2-ylamino}-7-cyclopentyl-7H-pyrrolo[2,3-d]pyrimidine-6-carboxylic acid dimethylamide]",14800 nM,1 to 10 nM,4700 nM
"CN(C)C(=O)c1cc2cnc(Nc3ccc(CN4CCNCC4)cn3)nc2n1C1CCCC1 [Example 42, 7-Cyclopentyl-2-(5-piperazin-1-ylmethyl-pyridin-2-ylamino)-7H-pyrrolo[2,3-d]pyri-midine-6-carboxylic acid dimethylamide]",> 15000 nM,10 to 100 nM,> 15000 nM
"CN1CCN(Cc2ccc(Nc3ncc4cc(C(=O)N(C)C)n(C5CCCC5)c4n3)nc2)CC1 [Example 43, 7-Cyclopentyl-2-[5-(4-methyl-piperazin-1-ylmethyl)-pyridin-2-ylamino]-7H-pyrrolo[2,3-d]pyrimidine-6-carboxylic acid dimethylamide]",> 15000 nM,10 to 100 nM,> 15000 nM
"CN(C)C(=O)c1cc2cnc(Nc3ccc(N4CCN(C(=O)OC(C)(C)C)CC4)nn3)nc2n1C1CCCC1 [Example 45, 4-[6-(7-Cyclopentyl-6-dimethylcarbamoyl-7H-pyrrolo[2,3-d]pyrimidin-2-ylamino)-pyridazin-3-yl]-piperazine-1-carboxylic acid tert-butyl ester]",> 15000 nM,100 to 1000 nM,20000 nM
"CN(C)C(=O)c1cc2cnc(Nc3ccc(N4CCN(C[C@@H](O)CO)CC4)cn3)nc2n1C1CCCC1 [Example 46, 7-Cyclopentyl-2-{5-[4-((R)-2,3-dihydroxy-propyl)-piperazin-1-yl]-pyridin-2-ylamino}-7H-pyrrolo[2,3-d]pyrimidine-6-carboxylic acid dimethylamide]",> 15000 nM,10 to 100 nM,> 15000 nM
"CN(C)C1CCN(c2ccc(Nc3ncc4cc(C#N)n(C5CCCC5)c4n3)nc2)CC1 [Example 47, 7-Cyclopentyl-2-((4-dimethylaminopiperidin)-1-yl-pyridin-2-ylamino)-7H-pyrrolo[2,3-d]pyrimidine-6-carbonitrile]",2600 nM,1 to 10 nM,8300 nM
"CN(C)C(=O)c1cc2cnc(Nc3cnc(N4CCNCC4)cn3)nc2n1C1CCCC1 [Example 48, 7-Cyclopentyl-2-(3,4,5,6-tetrahydro-2-[1,2′]bipyrazinyl-5′-ylamino)-7H-pyrrolo[2,3-d]pyrimidine-6-carboxylic acid dimethylamide]",> 15000 nM,100 to 1000 nM,> 15000 nM
"CN(C)C(=O)c1cc2cnc(Nc3ccc(C(=O)N4CCNCC4)cn3)nc2n1C1CCCC1 [Example 49, 7-Cyclopentyl-2-[5-(piperazine-1-carbonyl)-pyridin-2-ylamino]-7H-pyrrolo[2,3-d]pyrimidine-6-carboxylic acid dimethylamide]",> 15000 nM,10 to 100 nM,> 15000 nM
"CN(C)C(=O)c1cc2cnc(Nc3ccc(C(=O)N4CCC(N(C)C)CC4)cn3)nc2n1C1CCCC1 [Example 50, 7-Cyclopentyl-2-[5-(4-dimethylamino-piperidine-1-carbonyl)-pyridin-2-ylamino]-7H-pyrrolo[2,3-d]pyrimidine-6-carboxylic acid dimethylamide]",> 15000 nM,10 to 100 nM,> 15000 nM
"CNC(=O)c1cc2cnc(Nc3ccc(N4CCN(C(C)C)CC4)cn3)nc2n1C1CCCC1 [Example 51, 7-Cyclopentyl-2-[5-(4-isopropyl-piperazin-1-yl)-pyridin-2-ylamino]-7H-pyrrolo[2,3-d]pyrimidine-6-carboxylic acid methylamide]",> 15000 nM,10 to 100 nM,> 15000 nM
"CN(C)C(=O)c1cc2cnc(Nc3ccc(C4CCNCC4)cn3)nc2n1C1CCCC1 [Example 52, 7-Cyclopentyl-2-(1′,2′,3′,4′,5′,6-hexahydro-[3,4]bipyridinyl-6-ylamino)-7H-pyrrolo[2,3-d]pyrimidine-6-carboxylic acid dimethylamide]",> 15000 nM,10 to 100 nM,> 15000 nM
"CN(C)C(=O)c1cc2cnc(Nc3ccc(C(=O)N(C)C4CCNCC4)cn3)nc2n1C1CCCC1 [Example 53, 7-Cyclopentyl-2-[5-(methyl-piperidin-4-yl-carbamoyl)-pyridin-2-ylamino]-7H-pyrrolo[2,3-d]pyrimidine-6-carboxylic acid dimethylamide]",> 15000 nM,10 to 100 nM,> 15000 nM
"CC1CN(Cc2ccc(Nc3ncc4cc(C(=O)N(C)C)n(C5CCCC5)c4n3)nc2)CCN1 (stereo not drawn) [Example 54, 7-Cyclopentyl-2-[5-(3-methyl-piperazin-1-ylmethyl)-pyridin-2-ylamino]-7H-pyrrolo[2,3-d]pyrimidine-6-carboxylic acid dimethylamide]",> 15000 nM,10 to 100 nM,> 15000 nM
"C[C@H]1CN(Cc2ccc(Nc3ncc4cc(C(=O)N(C)C)n(C5CCCC5)c4n3)nc2)CCN1 [Example 55, 7-Cyclopentyl-2-[5-((S)-3-methyl-piperazin-1-ylmethyl)-pyridin-2-ylamino]-7H-pyrrolo[2,3-d]pyrimidine-6-carboxylic acid dimethylamide]",> 15000 nM,10 to 100 nM,> 15000 nM
"C[C@H](O)CN1CCN(c2ccc(Nc3ncc4cc(C(=O)N(C)C)n(C5CCCC5)c4n3)nc2)CC1 [Example 56, 7-Cyclopentyl-2-{5-[4-((S)-2-hydroxy-propyl)-piperazin-1-yl]-pyridin-2-ylamino}-7H-pyrrolo[2,3-d]pyrimidine-6-carboxylic acid dimethylamide]",> 15000 nM,10 to 100 nM,> 15000 nM
